Experimental data from ChEMBL document CHEMBL4665746, “Viennamycins: Lipopeptides Produced by a Streptomyces sp” (J Nat Prod, 2020).
Active and inactive are the calls of the source.

Tests used:
[1] = test system: Bacillus subtilis; assay: Antimicrobial activity against Bacillus subtilis in presence of >= 5 mM Zn2+; assay type: functional, organism-based
[2] = test system: Bacillus subtilis; assay: Antimicrobial activity against Bacillus subtilis in presence of >= 5 mM Mg2+; assay type: functional, organism-based
[3] = test system: Bacillus subtilis; assay: Antimicrobial activity against Bacillus subtilis in presence of >= 5 mM Mn2+; assay type: functional, organism-based
[4] = test system: Aspergillus niger; assay: Antimicrobial activity against Aspergillus niger CBS 110271; assay type: functional, organism-based
[5] = test system: Bacillus subtilis; assay: Antimicrobial activity against Bacillus subtilis in presence of >= 5 mM Ca2+; assay type: functional, organism-based
[6] = test system: Aspergillus niger; assay: Antimicrobial activity against Aspergillus niger CBS 110271 in presence of >= 5 uM Ca2+; assay type: functional, organism-based
[7] = test system: Fusarium graminearum; assay: Antimicrobial activity against Fusarium graminearum CBS 112.30; assay type: functional, organism-based
[8] = test system: Fusarium graminearum; assay: Antimicrobial activity against Fusarium graminearum CBS 112.30 in presence of >= 5 uM Ca2+; assay type: functional, organism-based
[9] = test system: Saccharomyces cerevisiae; assay: Antimicrobial activity against Saccharomyces cerevisiae BY4742 in presence of >= 5 uM Ca2+; assay type: functional, organism-based
[10] = test system: Saccharomyces cerevisiae; assay: Antimicrobial activity against Saccharomyces cerevisiae BY4742; assay type: functional, organism-based
[11] = test system: Acinetobacter baumannii; assay: Antimicrobial activity against Acinetobacter baumannii 1710; assay type: functional, organism-based
[12] = test system: Acinetobacter baumannii; assay: Antimicrobial activity against Acinetobacter baumannii 1799; assay type: functional, organism-based
[13] = test system: Acinetobacter baumannii; assay: Antimicrobial activity against Acinetobacter baumannii 1710 in presence of >= 5 uM Ca2+; assay type: functional, organism-based
[14] = test system: Acinetobacter baumannii; assay: Antimicrobial activity against Acinetobacter baumannii 1799 in presence of >= 5 uM Ca2+; assay type: functional, organism-based
[15] = test system: Acinetobacter baumannii; assay: Antimicrobial activity against Acinetobacter baumannii MB5973; assay type: functional, organism-based
[16] = test system: Streptomyces coelicolor; assay: Antimicrobial activity against Streptomyces coelicolor A3 in presence of >= 5 uM Ca2+; assay type: functional, organism-based
[17] = test system: Acinetobacter baumannii; assay: Antimicrobial activity against Acinetobacter baumannii MB5973 in presence of >= 5 uM Ca2+; assay type: functional, organism-based
[18] = test system: Streptomyces coelicolor; assay: Antimicrobial activity against Streptomyces coelicolor A3; assay type: functional, organism-based
[19] = test system: Streptococcus pneumoniae; assay: Antimicrobial activity against Streptococcus pneumoniae ATCC 46619; assay type: functional, organism-based
[20] = test system: Staphylococcus epidermidis; assay: Antimicrobial activity against Staphylococcus epidermidis; assay type: functional, organism-based
[21] = test system: Streptococcus pneumoniae; assay: Antimicrobial activity against Streptococcus pneumoniae ATCC 46619 in presence of >= 5 uM Ca2+; assay type: functional, organism-based
[22] = test system: Staphylococcus epidermidis; assay: Antimicrobial activity against Staphylococcus epidermidis in presence of >= 5 uM Ca2+; assay type: functional, organism-based
[23] = test system: Staphylococcus aureus; assay: Antimicrobial activity against Staphylococcus aureus MB2865; assay type: functional, organism-based
[24] = test system: Staphylococcus aureus; assay: Antimicrobial activity against Staphylococcus aureus MB2865 in presence of >= 5 uM Ca2+; assay type: functional, organism-based
[25] = test system: Staphylococcus aureus; assay: Antimicrobial activity against methicillin-sensitive Staphylococcus aureus ATCC 29213; assay type: functional, organism-based
[26] = test system: Staphylococcus aureus; assay: Antimicrobial activity against Staphylococcus aureus 1415-10; assay type: functional, organism-based
[27] = test system: Staphylococcus aureus; assay: Antimicrobial activity against methicillin-sensitive Staphylococcus aureus ATCC 29213 in presence of >= 5 uM Ca2+; assay type: functional, organism-based
[28] = test system: Staphylococcus aureus; assay: Antimicrobial activity against Staphylococcus aureus 1415-10 in presence of >= 5 uM Ca2+; assay type: functional, organism-based
[29] = test system: Staphylococcus aureus; assay: Antimicrobial activity against methicillin-resistant Staphylococcus aureus MB5393; assay type: functional, organism-based
[30] = test system: Staphylococcus aureus; assay: Antimicrobial activity against methicillin-resistant Staphylococcus aureus MB5393 in presence of >= 5 uM Ca2+; assay type: functional, organism-based
[31] = test system: MIA PaCa-2; assay: Cytotoxicity against human MIA PaCa-2 cells assessed as reduction in cell viability; assay type: functional, cell-based
[32] = test system: A2058; assay: Cytotoxicity against human A2058 cells assessed as reduction in cell viability; assay type: functional, cell-based
[33] = test system: A549; assay: Cytotoxicity against human A549 cells assessed as reduction in cell viability; assay type: functional, cell-based
[34] = test system: HepG2; assay: Cytotoxicity against human HepG2 cells assessed as reduction in cell viability; assay type: functional, cell-based
[35] = test system: MIA PaCa-2; assay: Cytotoxicity against human MIA PaCa-2 cells assessed as reduction in cell viability in presence of >= 5 uM Ca2+; assay type: functional, cell-based
[36] = test system: A2058; assay: Cytotoxicity against human A2058 cells assessed as reduction in cell viability in presence of >= 5 uM Ca2+; assay type: functional, cell-based
[37] = test system: A549; assay: Cytotoxicity against human A549 cells assessed as reduction in cell viability in presence of >= 5 uM Ca2+; assay type: functional, cell-based
[38] = test system: HepG2; assay: Cytotoxicity against human HepG2 cells assessed as reduction in cell viability in presence of >= 5 uM Ca2+; assay type: functional, cell-based

Measured: Activity

CC[C@H](C)[C@H](NC(=O)[C@H](CC(N)=O)NC(=O)/C=C\C=C\CCC(C)C)C(=O)N[C@H](Cc1ccccc1)C(=O)N[C@H](CC(=O)O)C(=O)N[C@@H](CC(=O)O)C(=O)N[C@@H]1C(=O)N(C)[C@H](C(C)C)C(=O)NCC(=O)NCC(=O)N[C@H](CCC(=O)O)C(=O)N[C@@H](C)C(=O)N2CCC[C@H]2C(=O)O[C@@H]1C
inactive: [1] | [2] | [3] | [4] | [5] | [6] | [7] | [8] | [9] | [10] | [11] | [12] | [13] | [14] | [15] | [16] | [17] | [18] | [19] | [20] | [21] | [22] | [23] | [24] | [25] | [26] | [27] | [28] | [29] | [30] | [31] | [32] | [33] | [34] | [35] | [36] | [37] | [38]

CC[C@H](C)[C@H](NC(=O)[C@H](CC(N)=O)NC(=O)/C=C\C=C\CCC(C)C)C(=O)N[C@H](Cc1ccccc1)C(=O)N[C@H](CS(=O)(=O)O)C(=O)N[C@@H](CC(=O)O)C(=O)N[C@@H]1C(=O)N(C)[C@H](C(C)C)C(=O)NCC(=O)NCC(=O)N[C@H](CCC(=O)O)C(=O)N[C@@H](C)C(=O)N2CCC[C@H]2C(=O)O[C@@H]1C
inactive: [1] | [2] | [3] | [4] | [5] | [6] | [7] | [8] | [9] | [10] | [11] | [12] | [13] | [14] | [15] | [16] | [17] | [18] | [19] | [20] | [21] | [22] | [23] | [24] | [25] | [26] | [27] | [28] | [29] | [30] | [31] | [32] | [33] | [34] | [35] | [36] | [37] | [38]
